From patent US10420339B2, “Aqueous fungicidal composition and use thereof for combating harmful micro organisms” (BASF SE, priority 2004, dated 2019)

Tests used:
[1] = tested on: Coniophora puteana BAM Ebw. 15; assay: Bravery test (closely based on EN 113) on impregnated wood test specimens, preventive effect against wood-destroying fungi; type: cell-based; details: test fungus CP, Pinus spp. (southern yellow pine) specimens 40x15x4 mm, loss in weight after 6 weeks, <3% by weight = satisfactory; for Limits of the effectiveness, with leaching (EN 84): with leaching according to EN 84
Experimental: (§1) The limits of the effectiveness of the compositions according to the invention with regard to wood-destroying basidiomycetes were determined on wood test specimens of Pinus spp. (southern yellow pine) with the dimensions 40×15×4 mm. The test method on comminuted wood test specimens, known as the Bravery test, is closely based on EN 113 and is used to determine the preventive effect of wood preservatives against wood-destroying fungi (see in this connection A. F. Bravery, Intern. Res. Group Wood Pres., Doc. No. IRG/WP/2113, 5S., Stockholm, 1978). The wood test specimens impregnated with the composition according to the invention were tested without or with the constraint of leaching according to EN 84. […] Coniophora puteana BAM Ebw. 15 and Poria placenta FPRL 280 were used as test fungi. The destruction of the wood caused by fungal infection was registered by the loss in weight of the test woods, which was determined after 6 weeks. […] The concentration limit of the effectiveness is given in two concentrations. […] The limits of the effectiveness are represented in table 4. For comparison, the values determined for a solution of the active substance in acetone are given.

[2] = tested on: Poria placenta FPRL 280; assay: as above; type: cell-based; details: test fungus PP, Pinus spp. (southern yellow pine) specimens 40x15x4 mm, loss in weight after 6 weeks, <3% by weight = satisfactory; for Limits of the effectiveness, with leaching (EN 84): with leaching according to EN 84
Experimental: as §1

Row | Compound | Limits of the effectiveness, with leaching (EN 84) [1] | Limits of the effectiveness, without leaching [1] [kg/m^3] | Limits of the effectiveness, with leaching (EN 84) [2] | Limits of the effectiveness, without leaching [2]
1 | Fc1ccc([C@]2(Cn3cncn3)O[C@H]2c2ccccc2Cl)cc1 (racemic) [Solution of epoxiconazole, epoxiconazole] | 0.11-0.16 kg/m^3 | <0.19 | 0.11-0.18 kg/m^3 | <0.19 kg/m^3
2 | CC(C)(C)C(O)(CCc1ccc(Cl)cc1)Cn1cncn1 (centres unmarked) [Solution of tebuconazole, tebuconazole] | <0.054 kg/m^3 | <0.052 | 0.095-0.152 kg/m^3 | 0.102-0.153 kg/m^3
